Experiments:
male BALB/c mice = test: Ability of test compounds to suppress delayed-type hypersensitivity in mice (DNFB, ear thickness); assay type: in vivo; conditions: dose 1 mg/kg orally 30 minutes before DNFB challenge; ear thickness increase 24 hours after the challenge
Procedure: <Experiment 2> Ability of Test Compounds to Suppress Delayed-Type Hypersensitivity in Mice. […] The sensitization was done for 2 consecutive days (day 0 and day 1). On day 5, the mice were challenged with the antigen to induce delayed-type hypersensitive responses: First, the initial thickness of each ear was measured by the dial thickness gauge G (0.01-10 mm, OZAKI MFG Co., Ltd.) and a test compound was administered. 30 minutes after the administration, 10 μL of a 0.2% (v/v) DNFB solution was applied to the inner and outer surfaces of the right ear of each animal for antigen challenge. The left ear of each animal was challenged with the solvent alone. 24 hours after the challenge, the increase in the ear thickness was measured for each ear and the difference in thickness between the right and the left ears was determined for each individual. The test compound was dissolved, or suspended, in an ultra pure water and was orally administered at a dose of 0.1 mL/10 g of body weight. A control group was administered ultra pure water alone.

male C3H/HeN mice = test: Ability of test compounds to suppress graft host vs rejection in mice (popliteal lymph node weight); assay type: in vivo; conditions: right popliteal lymph node weight 4 days after injection of BALB/c stimulation cells
Excerpt: Ability of Test Compounds to Suppress Graft Host vs Rejection in Mice […] Spleens were collected from 9 to 11 week old male BALB/c mice (CLEA JAPAN Inc., CHARLES RIVER JAPAN Inc., or JAPAN SLC Inc.). The spleens were placed in a phosphate-buffered saline (PBS(-), NISSUI PHARMACEUTICAL Co., Ltd.) or in an RPMI-1640 medium (GIBCO […] Inc., or IWAKI GLASS Co., Ltd.) and were either passed through a stainless steel mesh, or gently pressed between two slide glasses and then passed through a cell strainer (70 μm, Falcon), to form a cell suspension. The suspension was then centrifuged and the supernatant was discarded. An ammonium chloride-Tris isotonic buffer was added to the suspension to lyse erythrocytes. The cells were then centrifuged and washed three times in PBS (-) or RPMI-1640 medium and were resuspended in an RPMI-1640 medium. […] The cells were again centrifuged and washed in PBS (-) or RPMI-1640 medium and were resuspended in an RPMI-1640 medium so that the medium would contain 2.5×10^8 cells/mL. This suspension served as a “stimulation cell suspension.” Using a 27G needle along with a microsyringe (Hamilton), 20 μL (5×10^6 cells/mouse) of the stimulation cell suspension was subcutaneously injected into the right hind footpad of 7 to 9 week old male C3H/HeN mice (CLEA JAPAN Inc., CHARLES RIVER JAPAN Inc., or JAPAN SLC Inc.). […]

| melting point [°C] | SMILES | Inhibition (%) (male BALB/c mice) | Inhibition (%) (male C3H/HeN mice; dose 0.03 mg/kg intraperitoneally once a day for four consecutive days) | Inhibition (%) (male C3H/HeN mice; dose 0.3 mg/kg intraperitoneally once a day for four consecutive days) |
| --- | --- | --- | --- | --- |
| 132 to 133 | Cl.NC(CO)(CO)CCCc1ccc(Sc2cccc(OCc3ccccc3)c2)cc1Cl [Example 36, 2-amino-2-[4-(3-benzyloxyphenylthio)-2-chlorophenyl]propyl-1,3-propanediol hydrochloride] | 86 | 85 |  |
|  | Cl.NC(CO)(CO)CCc1ccc(Sc2cccc(OCc3ccccc3)c2)cc1Cl [Example 46, 2-amino-2-[4-(3-benzyloxyphenylthio)-2-chlorophenyl]ethyl-1,3-propanediol Hydrochloride] |  |  | 80 |
